Measurements from patent US12594267B2, “Capsid inhibitors for the treatment of HIV” (Gilead Sciences, Inc., priority 2018, dated 2026).

Experiment: PK after subcutaneous administration of solutions in dogs
Assay type: in vivo, Beagle dog
Description: Formulations containing the compound of Formula (Ia) were prepared as aqueous solutions or oral formulations and administered subcutaneously to rats, dogs, cynomolgus monkey, and/or rhesus monkey.
A solution of the compound of Formula (Ia) in 10% ethanol, 13% water, and 77% PEG 200 (400 mg/mL) was prepared. The solution was administered subcutaneously to dogs at a dose of 12 mg/kg and rats at a dose of 50 mg/kg and the pharmacokinetic (PK) profile was determined. […] In both species, plasma concentrations of the compound of Formula (Ia) were maintained above the target trough concentration of 20 nM (corresponding to an IQ of 5) for at least 84 days (12 weeks).
A solution of the compound of Formula (Ia) in 15% water and 85.0 PEG 300 (400 mg/mL) was prepared. The solution was administered subcutaneously to male beagle dogs at a dose level of 12 mg/kg and dose volume of […] and the pharmacokinetic (PK) profile was determined.
A solution of the compound of Formula (a) sodium salt in water and 300 (300 mg/mL) was prepared that contained 22.6% water/50% PEG 300/1.1% NaOH/26.3% Formula (Ia). The solution was administered subcutaneously to male beagle dogs at a dose level of 12 mg/kg and dose volume of […] and the pharmacokinetic (PK) profile was determined.
A 300 mg/ml solution of a compound of Formula (Ia) having 9.8 w/w % water, 65.0 w/w % PEG 300, and 25.2 w/w % of the compound of Formula (Ia) was prepared. The solution was administered subcutaneously to rats at a dose of 50 mg/kg and to dogs at a dose of 12 mg/kg and the pharmacokinetic (PK) profile was determined. […] In the rat, plasma concentrations of the compound of Formula (Ia) were maintained above the target trough concentration of 20 nM for at least 168 days (24 weeks). In the dog, plasma concentrations of the compound of Formula (Ia) were maintained above the target trough concentration of 20 nM for at least 84 days (12 weeks).
(§1) A 150 mg/ml solution of a compound of Formula (Ia) having 27.92 w/w % water, 58.04 w/w % PEG 300, 13.47 w/w % of a compound of Formula (Ia), and 1.1 w/w % NaOH was prepared. The solution was administered subcutaneously to rats at a dose of 50 mg/kg and to dogs at a dose of 12 mg/kg and the pharmacokinetic (PK) profile was determined. […] In the rat, plasma concentrations of the compound of Formula (Ia) were maintained above the target trough concentration of 20 nM for at least 126 days (18 weeks). In the dog, plasma concentrations of the compound of Formula (Ia) were maintained above the target trough concentration of 20 nM for at least 56 days (8 weeks).
as §1, with “300” for “150”, “23.2” for “27.92”, “50.0” for “58.04”, “25.7” for “13.47”
A 50 mg/ml solution of a compound of Formula (Ia) having 30.07 w/w % water, 64.40 w/w % PEG 300, 4.68 w/w % of a sodium salt of the compound of Formula (Ia), and 0.85 w/w % poloxamer 188 was prepared. The solution was administered subcutaneously to rats at a dose of 50 mg/kg and to dogs at a dose of 6 mg/kg and the pharmacokinetic (PK) profile was determined. […] In the rat, plasma concentrations of the compound of Formula (Ia) were maintained above the target trough concentration of 20 nM for at least 28 days (4 weeks). In the dog, plasma concentrations of the compound of Formula (Ia) were maintained above the target trough concentration of 20 nM for at least 14 days (2 weeks). […]

[1] = beagle, dog, plasma, sc, 12 mg/kg, SC 12 mg/kg, 400 mg/mL solution in 10% ethanol, 13% water, 77% PEG 200, mean ± SD, n=3
[2] = dog, SC 12 mg/kg, 150 mg/mL solution (w/w %: 27.92 water, 58.04 PEG 300, 13.47 Formula (Ia), 1.1 NaOH), mean ± SD, n=3

Compound `CC(C)(C#Cc1ccc(-c2ccc(Cl)c3c(NS(C)(=O)=O)nn(CC(F)(F)F)c23)c([C@H](Cc2cc(F)cc(F)c2)NC(=O)Cn2nc(C(F)(F)F)c3c2C(F)(F)[C@@H]2C[C@H]32)n1)S(C)(=O)=O` [Formula (Ia), N—((S)-1-(3-(4-chloro-3-(methylsulfonamido)-1-(2,2,2-trifluoroethyl)-1H-indazol-7-yl)-6-(3-methyl-3-(methylsulfonyl)but-1-yn-1-yl)pyridin-2-yl)-2-(3,5-difluorophenyl)ethyl)-2-((3bS,4aR)-5,5-difluoro-3-(trifluoromethyl)-3b,4,4a,5-tetrahydro-1H-cyclopropa[3,4]cyclopenta[1,2-c]pyrazol-1-yl)acetamide] has an AUC(0-t) (beagle, dog, plasma, sc, 12 mg/kg, dog, SC 12 mg/kg, 400 mg/mL solution in 10% ethanol, 13% water, 77% PEG 200, mean ± SD, n=3, read-out: AUC0-140d) of 111 ± 14 µM·h, a concentration at 84 d (beagle, dog, plasma, sc, 12 mg/kg, dog, SC 12 mg/kg, 400 mg/mL solution in 10% ethanol, 13% water, 77% PEG 200, mean ± SD, n=3, read-out: C84d) of 23.4 ± 5.7 nM and a Cmax [1] of 107 ± 13 nM. The Tmax [1] was 14 days, the Plasma concentration (dog #1, 0 h, SC 12 mg/kg, 400 mg/mL in 15% water/85% PEG 300) was “BLQ” and the Plasma concentration (dog #1, 1.0 h, SC 12 mg/kg, 400 mg/mL in 15% water/85% PEG 300) was “BLQ”. The Plasma concentration (dog #2, 0 h, SC 12 mg/kg, 400 mg/mL in 15% water/85% PEG 300) was “BLQ”, the Plasma concentration (dog #3, 0 h, SC 12 mg/kg, 400 mg/mL in 15% water/85% PEG 300) was “BLQ” and the “Time plasma concentrations maintained above the target trough concentration of 20 nM” value (dog, SC 6 mg/kg, 50 mg/mL solution (w/w %: 30.07 water, 64.40 PEG 300, 4.68 sodium salt of Formula (Ia), 0.85 poloxamer 188)) was “at least 14 days”. The “Time plasma concentrations maintained above the target trough concentration of 20 nM” value (dog, SC 6 mg/kg, 75 mg/mL solution (w/w %: 29.21 water, 62.55 PEG 300, 6.97 sodium salt of Formula (Ia), 1.68 poloxamer 188)) was “at least 21 days”, the “Time plasma concentrations maintained above the target trough concentration of 20 nM” value (dog, SC 6 mg/kg, 100 mg/mL solution (w/w %: 28.36 water, 60.73 PEG 300, 9.23 sodium salt of Formula (Ia), 1.68 poloxamer 188)) was “at least 14 days” and the AUC0-14d (dog, SC 6 mg/kg, 100 mg/mL solution (w/w %: 28.36 water, 60.73 PEG 300, 9.23 sodium salt of Formula (Ia), 1.68 poloxamer 188), mean ± SD, n=3) was 104 ± 26 µM·h. The “Time plasma concentrations maintained above the target trough concentration of 20 nM” value (dog, SC 6 mg/kg, 125 mg/mL solution (w/w %: 27.51 water, 58.92 PEG 300, 11.48 sodium salt of Formula (Ia), 2.09 poloxamer 188)) was “at least 14 days”, the “Time plasma concentrations maintained above the target trough concentration of 20 nM” value (dog, SC 6 mg/kg, 150 mg/mL solution (w/w %: 26.6 water, 56.97 PEG 300, 13.39 Formula (Ia), 0.57 NaOH, 2.49 poloxamer 188)) was “at least 56 days” and the “Time plasma concentrations maintained above the target trough concentration of 20 nM” value (dog, SC 6 mg/kg, 300 mg/mL solution (w/w %: 21.97 water, 47.05 PEG 300, 25.21 Formula (Ia), 1.08 NaOH, 4.69 poloxamer 188)) was “at least 56 days”. For the same compound, the AUC0-84d (dog, SC 6 mg/kg, 300 mg/mL solution (w/w %: 21.97 water, 47.05 PEG 300, 25.21 Formula (Ia), 1.08 NaOH, 4.69 poloxamer 188), mean ± SD, n=3) was 65.4 ± 21.5 µM·h, the “Time plasma concentrations maintained above the target trough concentration of 20 nM” value (dog, SC 12 mg/kg, 150 mg/mL solution (w/w %: 27.92 water, 58.04 PEG 300, 13.47 Formula (Ia), 1.1 NaOH)) was “at least 56 days” and the AUC0-28d [2] was 137.0 ± 38 µM·h. The AUC0-126d [2] was 196 ± 31 µM·h, the “Time plasma concentrations maintained above the target trough concentration of 20 nM” value (dog, SC 12 mg/kg, 300 mg/mL solution (w/w %: 9.8 water, 65.0 PEG 300, 25.2 Formula (Ia))) was “at least 84 days” and the “Time plasma concentrations maintained above the target trough concentration of 20 nM” value (dog, SC 12 mg/kg, 300 mg/mL solution (w/w %: 23.2 water, 50.0 PEG 300, 25.7 Formula (Ia), 1.1 NaOH)) was “at least 56 days”. For the same compound, the “Time plasma concentrations maintained above the target trough concentration of 20 nM” value (dog, SC 12 mg/kg, 400 mg/mL solution in 10% ethanol, 13% water, 77% PEG 200) was “at least 84 days”, the concentration at 3 h (male, beagle, dog, plasma, sc, 12 mg/kg, dog #1, 3.0 h, SC 12 mg/kg, 400 mg/mL in 15% water/85% PEG 300) was 1.2 nM and the concentration at 8 h (male, beagle, dog, plasma, sc, 12 mg/kg, dog #1, 8.0 h, SC 12 mg/kg, 400 mg/mL in 15% water/85% PEG 300) was 10.6 nM. It also gave a concentration at 24 h (male, beagle, dog, plasma, sc, 12 mg/kg, dog #1, 24.0 h, SC 12 mg/kg, 400 mg/mL in 15% water/85% PEG 300) of 19.8 nM, a concentration at 48 h (male, beagle, dog, plasma, sc, 12 mg/kg, dog #1, 48.0 h, SC 12 mg/kg, 400 mg/mL in 15% water/85% PEG 300) of 54.6 nM and a concentration at 72 h (male, beagle, dog, plasma, sc, 12 mg/kg, dog #1, 72.0 h, SC 12 mg/kg, 400 mg/mL in 15% water/85% PEG 300) of 62.8 nM. The concentration at 96 h (male, beagle, dog, plasma, sc, 12 mg/kg, dog #1, 96.0 h, SC 12 mg/kg, 400 mg/mL in 15% water/85% PEG 300) was 58.9 nM and the concentration at 168 h (male, beagle, dog, plasma, sc, 12 mg/kg, dog #1, 168 h, SC 12 mg/kg, 400 mg/mL in 15% water/85% PEG 300) was 71.9 nM.
